Test results published in the OligoGym collection.
Several values for one entry are separate records, joined by “and”; a condition that tells them apart may be missing. Identical values can stand only once. After the bases stand the sugars from the 5' end (letter, count) and the backbone: PS all phosphorothioate, else s phosphorothioate and o phosphodiester by linkage. Methylation of C is not given here. e = 2'-O-(2-methoxyethyl) (MOE); k = constrained ethyl (cEt); d = 2'-deoxy (DNA)

Target: IRF4
Conditions: ASO

Sequence	target mRNA inhibition (SK-MEL-28, 4 µM)	further results
GAACAATCCTGTACAC (sugars k4 d8 k4, PS)	0%	–
CTTGGAGAAGTCCCGT (sugars k3 d10 k3, PS)	39%	–
GGAAGTTTACACTGGA (sugars k3 d10 k3, PS)	85%	target mRNA inhibition (MM.1R, 0.0625 µM): 41% and 42%; target mRNA inhibition (MM.1R, 0.25 µM): 66% and 68%; target mRNA inhibition (MM.1R, 0.666 µM): 79% and 94%; target mRNA inhibition (MM.1R, 2 µM): 95% and 98%; target mRNA inhibition (MM.1R, 4 µM): 91%
GCTCATCCCGTCCAGC (sugars k3 d10 k3, PS)	15%	–
CGCACGGACGAACGCG (sugars k3 d10 k3, PS)	–	target mRNA inhibition (MM.1R, 1 µM): -17%
ACCCAGCTAATGAGAG (sugars k3 d10 k3, PS)	35%	–
AAGTTCATGTAAAGTC (sugars k3 d10 k3, PS)	–	target mRNA inhibition (MM.1R, 1 µM): 43% and 41%
ATGGCAGTCTACAGAA (sugars k3 d10 k3, PS)	-2%	–
TGGGAGTACCCGCAGA (sugars k3 d10 k3, PS)	26%	–
CCATTACTTAGACATT (sugars k3 d10 k3, PS)	64%	–
GAAAACAGCCGCCGGC (sugars k3 d10 k3, PS)	26%	–
AGAAGTACGAGCACAT (sugars k3 d10 k3, PS)	44%	–
TCCATAGAGCCAGAGC (sugars k3 d10 k3, PS)	–	target mRNA inhibition (MM.1R, 1 µM): 20%
TAGGAAGTTTACTAAC (sugars k3 d10 k3, PS)	36%	–
ATAAAGACCTTAACCA (sugars k3 d10 k3, PS)	27%	–
CCATTAGAAAAGCAGG (sugars k3 d10 k3, PS)	80% and 78%	–

Sequence	target mRNA inhibition (SK-MEL-28, 4 µM)	further results
AAAGGCCAAATTGCAA (sugars k3 d10 k3, PS)	52%	–
CTATAGTGTTCCAGGA (sugars kkkddddddddkekek, PS)	–	target mRNA inhibition (MM.1R, 1 µM): 23%
ATCTATAAGATGTATA (sugars k3 d10 k3, PS)	-1%	–
CCTGAGACAAGTGCTA (sugars k3 d10 k3, PS)	43%	–
AGCAATTGAAATGGAG (sugars k3 d10 k3, PS)	22%	–
GAAAATCTGGATGAGC (sugars k3 d10 k3, PS)	64%	target mRNA inhibition (MM.1R, 0.0625 µM): 7%; target mRNA inhibition (MM.1R, 0.074 µM): 11%; target mRNA inhibition (MM.1R, 0.222 µM): -1%; target mRNA inhibition (MM.1R, 0.25 µM): 8%; target mRNA inhibition (MM.1R, 0.666 µM): -26%; target mRNA inhibition (MM.1R, 1 µM): 22%; target mRNA inhibition (MM.1R, 4 µM): 59%
GTGCAGTTCCGTAGTC (sugars k3 d10 k3, PS)	21%	–
TGCAAACGACAAGTGG (sugars k3 d10 k3, PS)	21%	–
CAAGTGTCTAAAGTCC (sugars kkdddddddddekeke, PS)	–	target mRNA inhibition (MM.1R, 1 µM): 23% and 25%
TGAAACTGAGAGTGCG (sugars k3 d10 k3, PS)	19%	–
CCGAAAAGACTGGAGT (sugars k3 d10 k3, PS)	57%	–
CTGAACTGAAATCTCC (sugars k3 d10 k3, PS)	64% and 63%	–
TATCATGCATACCAAA (sugars k3 d10 k3, PS)	58%	target mRNA inhibition (MM.1R, 0.074 µM): -4%; target mRNA inhibition (MM.1R, 0.222 µM): -7%; target mRNA inhibition (MM.1R, 0.666 µM): 3%; target mRNA inhibition (MM.1R, 2 µM): 14%
ACTTATAGCACTCTCC (sugars k3 d10 k3, PS)	–	target mRNA inhibition (MM.1R, 1 µM): 1%
ACTTAAAATCCACACC (sugars k3 d10 k3, PS)	7%	–
GAAGCATTTTATCATC (sugars k3 d9 k3 e1, PS)	–	target mRNA inhibition (MM.1R, 1 µM): 1%
